Assay [1] has as its system HUVEC with or without PBMC (3C, 4H, SAG and LPS systems). Nature of the assay: BioMAP inflammation model systems (3C, 4H, SAG, LPS), cell-based ELISA profiling. Further details: species or system human. As to conditions: 4 systems (3C, 4H, SAG, LPS); concentration of 5 micromolar; 24 h stimulation.
Assay [2] has as its system IFN-gamma signaling. Nature of the assay: Gamma interferon signaling inhibition in cell-based (BioMAP) assay. Also on record: species or system human. As to conditions: weakly inhibit T cell and monocyte activation (less than 50%) but inhibit IFN-gamma signaling and collagen production. As to the method:
In another embodiment, the compounds of the invention are the subset of compounds of Formula (I) that are gamma interferon signaling inhibitors. […] Gamma interferon signaling inhibitors may be especially useful in treating the inflammation underlying multiple diseases including rheumatoid arthritis, systemic sclerosis, COPD, asthma, atherosclerosis, cirrhosis, pulmonary fibrosis, sarcoidosis, keloids, and renal fibrosis.
(§1) Human umbilical vein endothelial cells (HUVEC) were cultured as described in Kunkel et al., 2004, FASEB J 18:1279-1281. Peripheral blood mononuclear cells (PBMC) were prepared from buffy coats (Stanford Blood Bank, Stanford, Calif.) by centrifugation over Hisopaque-1077 (Sigma). Four assay systems, 3C, 4H, SAG, and LPS, were used. For the 3C system, HUVEC were cultured for 24 h in microtiter plates (Falcon; BD Biosciences), in the presence of cytokines IL-1β (1 ng/ml), TNF-α (5 ng/ml), and IFN-γ (20 ng/ml). For the 4H system, HUVEC were cultured in the presence of IL-4 (5 ng/ml) and histamine (10 μM). For the SAG system, HUVEC were cultured with PBMC (7.5×10^4) and SAG (20 ng/ml). For the LPS system, HUVEC were cultured with PBMC (7.5×10^4) and LPS (2 ng/ml). Compounds were added 1 h before stimulation and were present during the entire 24-h stimulation period. Cell-based enzyme-linked immunosorbent assay (ELISAs) were carried out as described. (See Kunkel et al., 2004, FASEB J 18:1279-1281.)

Assay [3] relates to T cell activation. The assay can be described thus: T cell activation inhibition in cell-based (BioMAP) assay. Further details: species or system human. As for the experimental part:
T-cell activation inhibitors may be especially useful in treating the inflammation underlying arthritis, psoriasis, vasculitis, multiple sclerosis, IBD, asthma, atherosclerosis, or other inflammatory disease.
as §1

The test system of assay [4] is monocyte activation. Nature of the assay: Monocyte activation inhibition in cell-based (BioMAP) assay. Also on record: species or system human. As to conditions: weakly inhibit T cell activation, strongly inhibit monocyte activation, MCP-1 and IL-8 (at least 50%) in a cell-based assay. As for the experimental part: as §1
Assay [5] deals with mouse peritoneal inflammation model. The assay can be described thus: Mouse peritoneal inflammation model (thioglycollate). As to conditions: 10 mg/kg intraperitoneal single dose, thioglycollate stimulus, peritoneal lavage at 4 and 24 hours. The class given is in vivo. As to the method:
The following example illustrates the ability of a compound useful in the methods of the present invention to reduce neutrophil and monocyte recruitment, as well as to reduce the total number of leukocytes in a mouse peritoneal inflammation model.
A single dose (10 mg/kg in 200 μl) of an anti-inflammatory pyrazolopyrimidine compound of the present invention (compound 30 in Table 1, above) was administered intraperionteally to a group of 6 mice while another group of 6 mice received an intraperitoneal injection of vehicle only. Fifteen minutes later, an inflammatory stimulus (thioglycollate, 200 μl) was administered intraperitoneally to each mouse. Peritoneal lavage was collected at 4 and 24 hours subsequent to stimulus administration.
Inflammatory infiltrate was recovered by injection of 10 ml of Ca++/Mg++ free PBS, massaging, and withdrawal. Total recovered cells were counted on a hemacytometer. The results are presented in FIG. 2 (average+/−SD of 6 mice).
Neutrophils, monocytes, lymphocytes and eosinophils were enumerated by analyzing smears of the peritoneal wash stained with Wright-Geimsa stain. The results are presented in FIG. 3 (average+/−SD of 6 mice).

Where [6] appears, read: strongly inhibit T cell activation: at least one listed gene product inhibited by at least 50% in a cell-based assay.

This note sets out measurements from patent US9512125B2, “Substituted pyrazolo[3.4-D] pyrimidines as anti-inflammatory agents” (THE REGENTS OF THE UNIVERSITY OF CALIFORNIA, priority 2004, dated 2016).

Where two headings read alike, the source gives them in different places.

Turning to `CC(C)(C)n1nc(Cc2cccc3ccccc23)c2c(N)ncnc21` [Compound 7], in assay [1], the outcome was active. The “gamma interferon signaling inhibitor classification” value in assay [2] is recorded as “interferon gamma signaling inhibitor”.
On the same counts, the results for `Cc1cc(-c2nn(C(C)(C)C)c3ncnc(N)c23)cc2ccccc12` [Compound 8] are “active” and “interferon gamma signaling inhibitor”.
For `Cc1ccc(-c2nn(C(C)(C)C)c3ncnc(N)c23)c2ccccc12` [Compound 9], in that order: “active” and “interferon gamma signaling inhibitor”.
For `CC(C)(C)n1nc(-c2ccc3ccccc3c2)c2c(N)ncnc21` [Compound 10], in assay [1], the result was active. For the same molecule, in assay [3] (setting [6]), the “T cell activation inhibitor classification” value is given as “T cell activation inhibitor”.
On to `CC(C)(C)n1nc(-c2ccc3c4c(cccc24)CC3)c2c(N)ncnc21` [Compound 11], for which the outcome in assay [1] was active. Further, the “gamma interferon signaling inhibitor classification” value in assay [2] is on record as “interferon gamma signaling inhibitor”.
Regarding `CC(C)(C)n1nc(-c2ccc(F)c3ccccc23)c2c(N)ncnc21` [Compound 12], in assay [1], the outcome was active. Besides, the “gamma interferon signaling inhibitor classification” value in assay [2] is “interferon gamma signaling inhibitor”.
As to `Cc1ccc(-c2nn(C(C)(C)C)c3ncnc(N)c23)cc1` [Compound 13, PP1, reference compound], the “T cell activation inhibitor classification” value in assay [3] is “T cell activation inhibitor”.
In the case of `CC(C)(C)n1nc(-c2ccc3c(c2)OCO3)c2c(N)ncnc21` [Compound 15], the result in assay [1] was active. Further, the “T cell activation inhibitor classification” value in assay [3] (setting [6]) was “T cell activation inhibitor”.
On the same counts, the results for `CC(C)(C)n1nc(-c2cccc(N)c2)c2c(N)ncnc21` [Compound 17] are “active” and “T cell activation inhibitor”.
On to `CC(C)(C)n1nc(-c2cccc3ccccc23)c2c(N)ncnc21` [Compound 19], for which, in assay [1], the result was active. In assay [2], the “gamma interferon signaling inhibitor classification” value is “interferon gamma signaling inhibitor”.
Regarding `CC(C)(C)n1nc(Cc2ccccc2Cl)c2c(N)ncnc21` [Compound 30], in assay [1], the outcome was active. Also, in assay [4], the “monocyte activation inhibitor classification” value is on record as “monocyte activation inhibitor”. For the same molecule, in assay [5], the monocyte recruitment result was “reduce”, the neutrophil recruitment entry is on record as “reduce” and the “total number of leukocytes” value is “reduce”.
Turning to `CC(C)(C)n1nc(-c2cccc(O)c2)c2c(N)ncnc21` [Compound 41], the result in assay [1] was active. Moreover, the “T cell activation inhibitor classification” value in assay [3] (setting [6]) is “T cell activation inhibitor”.
For `Cn1nc(-c2ccc3ccccc3c2)c2c(N)ncnc21` [Compound 48], in that order: “active” and “T cell activation inhibitor”.
On the same counts, the results for `CC(C)n1nc(-c2cccc(O)c2)c2c(N)ncnc21` [Compound 54] are “active” and “T cell activation inhibitor”.
With `CNc1ncnc2c1c(Cc1ccccc1Cl)nn2C(C)(C)C` [Compound 76], in assay [1], the result was active. Further, in assay [4], the “monocyte activation inhibitor classification” value is “monocyte activation inhibitor”.
